The target in the assay is T1, canine TRPM8 (Canis lupus familiaris, UniProt Q1A7N1).
T1 construct: expressed in transfected cells
Put plainly: In vitro canine TRPM8 functional assay (Ca2+-sensitive dye, FLIPR/FDSS, icilin activation). Type of assay: cell-based. The following applies: HEK293 cells expressing canine TRPM8, icilin activation; for % I (1 μM): 1 μM compound; for IC50: eight-point dose-response; for % I (5 μM): 5 μM compound. In outline:
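HEK293 cells stably expressing canine TRPM8, loaded with Calcium 3 dye, preincubated with compound for 5 min before icilin at a concentration giving ~80% maximal response. Ca2+ fluorescence by FLIPR or FDSS; basal-subtracted, normalized to % maximal response, quadruplicate wells, sigmoidal fit for EC50/IC50.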

Setting [1] is: HEK293, read-out: % I (1 μM), 1 μM compound.
Where [2] appears, read: HEK293, 1 μM compound, read-out: % I (1 μM).

Molecules are shown by their SMILES. Where “and” joins values, the source holds several entries; their conditions need not be identical. Equal entries are not always repeated. Where two headings read alike, the source gives them in different places.

The results in this text go back to patent US20080287398A1, “COLD MENTHOL RECEPTOR-1 ANTAGONISTS” (priority 2007, published 2008).

T1 sequence (Q1A7N1 1-1104): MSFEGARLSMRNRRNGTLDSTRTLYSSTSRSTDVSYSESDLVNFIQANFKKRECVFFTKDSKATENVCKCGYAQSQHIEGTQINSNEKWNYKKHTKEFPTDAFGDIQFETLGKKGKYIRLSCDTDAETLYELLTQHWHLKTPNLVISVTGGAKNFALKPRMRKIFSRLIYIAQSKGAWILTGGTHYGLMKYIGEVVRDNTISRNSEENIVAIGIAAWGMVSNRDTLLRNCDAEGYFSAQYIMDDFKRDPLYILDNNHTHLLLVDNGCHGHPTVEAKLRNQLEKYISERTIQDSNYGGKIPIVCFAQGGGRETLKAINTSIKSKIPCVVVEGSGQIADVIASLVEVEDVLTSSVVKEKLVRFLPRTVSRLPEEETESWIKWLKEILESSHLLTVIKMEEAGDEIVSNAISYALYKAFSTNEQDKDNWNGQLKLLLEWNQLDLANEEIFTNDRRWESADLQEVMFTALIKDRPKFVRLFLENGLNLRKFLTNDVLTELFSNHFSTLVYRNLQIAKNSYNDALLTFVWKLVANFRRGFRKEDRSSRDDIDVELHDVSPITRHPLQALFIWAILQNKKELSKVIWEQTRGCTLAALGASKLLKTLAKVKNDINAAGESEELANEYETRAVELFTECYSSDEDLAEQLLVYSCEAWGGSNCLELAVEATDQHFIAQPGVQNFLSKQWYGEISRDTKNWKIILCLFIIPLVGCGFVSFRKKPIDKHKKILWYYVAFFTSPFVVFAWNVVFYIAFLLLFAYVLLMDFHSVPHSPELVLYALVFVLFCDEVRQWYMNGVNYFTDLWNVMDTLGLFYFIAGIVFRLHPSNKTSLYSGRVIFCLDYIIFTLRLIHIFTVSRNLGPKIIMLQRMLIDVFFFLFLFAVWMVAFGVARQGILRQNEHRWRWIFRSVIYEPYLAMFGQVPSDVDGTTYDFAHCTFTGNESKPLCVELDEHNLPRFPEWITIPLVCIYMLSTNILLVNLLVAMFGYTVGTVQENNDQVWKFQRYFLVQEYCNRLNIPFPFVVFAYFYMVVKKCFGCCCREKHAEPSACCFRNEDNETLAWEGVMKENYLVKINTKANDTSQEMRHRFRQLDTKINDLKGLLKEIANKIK

As a reminder, the IC50 is the concentration that inhibits the measured activity by half. Consider `CC(C)OP(=O)(OC(C)C)C(Cc1cccc(C(F)(F)F)c1)c1cc2ccccc2s1` (centres unmarked) [Cpd 69], for which the “% I (1 μM)” value is reported as 99%. Under “read-out: IC50”, the IC50 turned out to be 0.35 µM.
For the molecule `CCOP(=O)(OCC)C(Cc1ccc(Br)cc1)c1cc2ccccc2s1` (centres unmarked) [Cpd 70], the “% I (1 μM)” value was 82% and the “% I (5 μM)” value was found to be 99%. Where the note is “read-out: IC50”, the IC50 was determined as 0.35 µM.
As for `CCOP(=O)(OCC)C(Cc1cc2c(cc1Cl)OCO2)c1sc2ccccc2c1C` (centres unmarked) [Cpd 71], the “% I (1 μM)” value came out at 98%. The IC50 (read-out: IC50) amounted to 0.36 µM.
Regarding `CCOP(=O)(OCC)C(Cc1cccc(-c2ccncc2)c1)c1sc2ccccc2c1C` (centres unmarked) [Cpd 72, [1-(3-Methyl-benzo[b]thiophen-2-yl)-2-(3-pyridin-4-yl-phenyl)-ethyl]-phosphonic acid diethyl ester], under setting [1], the inhibition at 1 µM turned out to be 99%. The molecule further yielded an IC50 (IC50 (μM)) of 0.36 µM.
Consider `CCOP(=O)(OCC)C(Cc1cc(C(F)(F)F)cc(Cl)c1F)c1sc2ccccc2c1C` (centres unmarked) [Cpd 73], for which the “% I (1 μM)” value was 100%. Besides, the IC50 (read-out: IC50) stood at 0.36 µM.
Taken in the same sequence, the figures for `CCOP(=O)(OCC)C(Cc1ccccc1)c1cc2ccccc2s1` (centres unmarked) [Cpd 74] were 92% and 0.38 µM.
In the case of `CCOP(=O)(OCC)C(Cc1cc(F)c(Cl)cc1Cl)c1sc2ccccc2c1C` (centres unmarked) [Cpd 76], the “% I (1 μM)” value came to 100%. The IC50 (read-out: IC50) stood at 0.4 µM.
Consider `CCOP(=O)(OCC)C(Cc1cccc(-c2ccccc2)c1)c1sc2ccccc2c1C` (centres unmarked) [Cpd 77], for which the inhibition at 1 µM under setting [1] came out at 98%. For the setting “IC50 (μM)”, this molecule displayed an IC50 of 0.41 µM.
The corresponding values for `CCOP(=O)(OCC)C(Cc1ccc(Cl)c(Cl)c1)c1cc2ccccc2s1` (centres unmarked) [Cpd 78, [1-Benzo[b]thiophen-2-yl-2-(3,4-dichloro-phenyl)-ethyl]-phosphonic acid diethyl ester] are 95% and 0.43 µM.
Taken in the same sequence, the figures for `CCOP(=O)(OCC)C(C)(Cc1ccc(F)c(F)c1)c1sc2ccccc2c1C` (centres unmarked) [Cpd 79, [2-(3,4-Difluoro-phenyl)-1-methyl-1-(3-methyl-benzo[b]-thiophen-2-yl)-ethyl]-phosphonic acid diethyl ester] were 88% and 0.43 µM.
Regarding `CCOP(=O)(OCC)C(Cc1ccccc1F)c1cc2ccccc2s1` (centres unmarked) [Cpd 80], the “% I (1 μM)” value was 93% and the “% I (5 μM)” value worked out at 100%. For the same molecule, the IC50 (read-out: IC50) turned out to be 0.43 µM.
Consider `CCOP(=O)(OCC)C(Cc1cccc(C(F)(F)F)c1Cl)c1sc2ccccc2c1C` (centres unmarked) [Cpd 81], for which the “% I (1 μM)” value is 100% and 87%. For the same molecule, the IC50 (read-out: IC50) was 0.44 µM and 0.61 µM.
As to `CCOP(=O)(OCC)C(Cc1ccc(F)c(F)c1)c1sc2cc(OC)ccc2c1C` (centres unmarked) [Cpd 82, [2-(3,4-Difluoro-phenyl)-1-[6-methoxy-3-methyl-benzo[b]thiophene-2-yl)-ethyl]-phosphonic acid diethyl ester], the inhibition at 1 µM under setting [1] was 87%. The same molecule gave an IC50 (IC50 (μM)) of 0.44 µM.
For the molecule `CCOP(=O)(OCC)C(Cc1ccc2ccccc2c1)c1cc2ccccc2s1` (centres unmarked) [Cpd 83], the “% I (1 μM)” value came to 84%. For the same molecule, for the setting “read-out: IC50”, the IC50 was determined as 0.45 µM.
On to `CCOP(=O)(OCC)C(Cc1ccc(F)c(F)c1)c1sc2cccc(C(F)(F)F)c2c1C` (centres unmarked) [Cpd 84], for which, under setting [1], the inhibition at 1 µM turned out to be 97%. The IC50 (IC50 (μM)) was 0.46 µM.
Turning to `CCOP(=O)(OCC)C(Cc1ccccc1Cl)c1cc2ccccc2s1` (centres unmarked) [Cpd 85], the “% I (1 μM)” value came out at 90% and the “% I (5 μM)” value is 100%. Besides, the IC50 (read-out: IC50) came to 0.48 µM.
As to `CCOP(=O)(OCC)C(Cc1ccccc1F)c1csc2ccccc12` (centres unmarked) [Cpd 86], the “% I (5 μM)” value worked out at 101%. The IC50 (read-out: IC50) was determined as 0.5 µM.
In the case of `CCOP(=O)(OCC)C(Cc1ccc(F)c(F)c1)C1=C(C)c2ccccc2S1(=O)=O` (centres unmarked) [Cpd 88, [2-(3,4-Difluoro-phenyl)-1-(3-methyl-1,1-dioxo-1H-1λ^6-benzo-[b]thiophen-2-yl)-ethyl]-phosphonic acid diethyl ester], under setting [1], the inhibition at 1 µM came out at 80%. Besides, the IC50 (IC50 (μM)) was 0.5 µM and 0.54 µM.
On to `CCOP(=O)(OCC)C(Cc1ccccc1C)c1cc2ccccc2s1` (centres unmarked) [Cpd 89], for which the “% I (1 μM)” value is 91% and the “% I (5 μM)” value was found to be 100%. Moreover, for the setting “read-out: IC50”, the IC50 is 0.52 µM.
In the case of `CCOP(=O)(OCC)C(Cc1cc2ccccc2s1)c1cc2ccccc2s1` (centres unmarked) [Cpd 90], the “% I (1 μM)” value was 89%. Besides, for the setting “read-out: IC50”, the IC50 amounted to 0.54 µM.
As for `Cc1c(C(Cc2ccc(F)c(F)c2)P(=O)(OC(C)C)OC(C)C)sc2ccc(Cl)cc12` (centres unmarked) [Cpd 92, [1-(5-Chloro-3-methyl-benzo[b]thiophen-2-yl)-2-(3,4-difluoro-phenyl)-ethyl]-phosphonic acid diisopropyl ester], the inhibition at 1 µM under setting [2] is 91%. For the same molecule, for the setting “read-out: IC50”, the concentration for half-maximal inhibition (IC50) amounted to 0.58 µM.
For `CC(C)OP(=O)(OC(C)C)C(Br)(Cc1ccc(F)c(F)c1)c1sc2ccccc2c1Br` (centres unmarked) [Cpd 93, [1-Bromo-1-(3-bromo-benzo[b]thiophen-2-yl)-2-(3,4-difluoro-phenyl)-ethyl]-phosphonic acid diisopropyl ester], the inhibition at 1 µM under setting [2] was found to be 80%. Where the note is “read-out: IC50”, the IC50 amounted to 0.58 µM.
Regarding `CCOP(=O)(Cc1cc2ccccc2s1)OCc1c(Cl)cccc1Cl` (centres unmarked) [Cpd 94, Benzo[b]thiophen-2-ylmethyl-phosphonic acid 2,6-dichloro-benzyl ester ethyl ester], the “% I (5 μM)” value is 98%. Also, under setting [1], the inhibition at 1 µM is 79%. The IC50 (IC50 (μM)) worked out at 0.6 µM.
Turning to `CCOP(=O)(OCC)C(Cc1c(Cl)cccc1Cl)c1cc2ccccc2s1` (centres unmarked) [Cpd 95], the “% I (1 μM)” value is 89% and the “% I (5 μM)” value was 100%. For the same molecule, the IC50 (read-out: IC50) turned out to be 0.6 µM.
With `CCOP(=O)(OCC)C(Cc1cc(C(F)(F)F)cc(C(F)(F)F)c1)c1cc2ccccc2s1` (centres unmarked) [Cpd 96], the “% I (1 μM)” value turned out to be 92%. Further, the IC50 (read-out: IC50) turned out to be 0.64 µM.
The corresponding values for `CCOP(=O)(OCC)C(Cc1ccc(F)cc1Cl)c1cc2ccccc2s1` (centres unmarked) [Cpd 98] are 79% and 0.71 µM.
For `CCOP(=O)(OCC)C(Cc1cc(C(F)(F)F)ccc1Cl)c1sc2ccccc2c1C` (centres unmarked) [Cpd 99], the “% I (1 μM)” value is listed as 100%. The IC50 (read-out: IC50) came out at 0.72 µM.
With `CCOP(=O)(OCC)C(Cc1cccc(Cl)c1Cl)c1cc2ccccc2s1` (centres unmarked) [Cpd 100], the “% I (1 μM)” value amounted to 82%. The IC50 (read-out: IC50) worked out at 0.73 µM.
As for `Cc1c(C(Cc2ccc(F)c(F)c2)P(=O)(OC2CCCCC2)OC2CCCCC2)sc2ccccc12` (centres unmarked) [Cpd 101, [2-(3,4-Difluoro-phenyl)-1-(3-methyl-benzo[b]thiophen-2-yl)-ethyl]-phosphonic acid dicyclohexyl ester], the inhibition at 1 µM under setting [2] turned out to be 55%. The IC50 (read-out: IC50) came out at 0.75 µM.
Take `CCOP(=O)(OCC)C(Cc1ccccc1C(F)(F)F)c1cc2ccccc2s1` (centres unmarked) [Cpd 102]: the “% I (1 μM)” value was 86%. The IC50 (read-out: IC50) stood at 0.75 µM.
Take `CCOP(=O)(OCCN(C)C)C(Cc1ccc(F)c(F)c1)c1sc2ccccc2c1C` (centres unmarked) [Cpd 103, [2-(3,4-Difluoro-phenyl)-1-(3-methyl-benzo[b]thiophen-2-yl)-ethyl]-phosphonic acid 2-dimethylamino-ethyl ester ethyl ester]: the inhibition at 1 µM under setting [1] was determined as 60%. Where the note is “IC50 (μM)”, 0.93 µM corresponded to half-maximal inhibition (IC50).
In the case of `CCOP(=O)(Cc1cc2ccccc2s1)OCc1ccccc1C` (centres unmarked) [Cpd 104, Benzo[b]thiophen-2-ylmethyl-phosphonic acid ethyl ester 2-methyl-benzyl ester], the “% I (5 μM)” value is reported as 99%. Also, under setting [1], the inhibition at 1 µM is 53%. Under “IC50 (μM)”, this molecule gave an IC50 of 0.96 µM.
